Experimental data: US20240066028A1, “COMPOSITIONS FOR IMPROVED DELIVERY OF CGRP INHIBITORS” (Pfizer Ireland Pharmaceuticals, priority 2020, published 2024)
pKi: −log10 of the molar value. Where two headings read alike, the source gives them in different places.

What was measured:
[1] = Study BHV3500-107 Cohort 1: zavegepant 50 mg SoftGel QD PK (fasted Days 1-10, fed Days 11-14); assay type: in vivo, humans; conditions: for Cmax / AUC(0-t) / Tmax / AUC(0-inf): human, in vivo, 50 mg
human CGRP = human CGRP (Homo sapiens, UniProt O60894+Q16602); conditions: cited from earlier work
[2] = PK exposure from 10 mg intranasal (IN) zavegepant; assay type: in vivo, human; conditions: 10 mg IN
[3] = Phase 2/3 dose-ranging clinical trial of intranasal BHV-3500; assay type: in vivo, human; conditions: intranasal unit doses 5, 10 and 20 mg; treatment of migraine
[4] = female, beagle, dog, in vivo, 50 mg
in vivo = conditions: female, beagle, dog, 50 mg; for AUC(0-t): AUC0-4 hr
[5] = Study 107, Cohort 1, Day 1, 50 mg SoftGel single dose, fasted

Chain of human CGRP (Q16602 23-461): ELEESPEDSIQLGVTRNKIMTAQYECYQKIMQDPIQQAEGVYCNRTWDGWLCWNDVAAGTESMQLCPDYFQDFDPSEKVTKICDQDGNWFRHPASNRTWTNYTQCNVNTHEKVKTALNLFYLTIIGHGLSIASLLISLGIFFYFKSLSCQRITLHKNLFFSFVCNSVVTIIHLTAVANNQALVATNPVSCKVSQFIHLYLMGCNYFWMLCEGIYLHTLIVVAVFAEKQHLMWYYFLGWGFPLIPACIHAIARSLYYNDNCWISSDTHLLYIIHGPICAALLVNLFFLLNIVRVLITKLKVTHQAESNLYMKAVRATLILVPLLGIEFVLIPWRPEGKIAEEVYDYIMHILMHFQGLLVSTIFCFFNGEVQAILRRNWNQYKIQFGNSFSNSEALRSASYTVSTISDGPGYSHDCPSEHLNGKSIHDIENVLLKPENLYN
Chain of human CGRP (O60894 27-148): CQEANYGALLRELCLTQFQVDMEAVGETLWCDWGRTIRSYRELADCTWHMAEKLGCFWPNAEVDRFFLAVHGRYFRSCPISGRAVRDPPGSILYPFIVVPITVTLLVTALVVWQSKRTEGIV

## Cc1cc(C[C@@H](NC(=O)N2CCC(c3cc4ccccc4[nH]c3=O)CC2)C(=O)N2CCN(C3CCN(C)CC3)CC2)cc2cn[nH]c12 [BHV-3500, (R)-N-(3-(7-methyl-1H-indazol-5-yl)-1-(4-(1-methylpiperidin-4-yl)piperazin-1-yl)-1-oxopropan-2-yl)-4-(2-oxo-1,2-dihydroquinolin-3-yl)piperidine-1-carboxamide]
[1]; [5]
  Cmax, Min: 1.42 ng/mL
  HL_Lambda_z, Geometric Mean: 2.48 h
  HL_Lambda_z, Max: 5.07 h
  HL_Lambda_z, Mean: 2.66 h
  HL_Lambda_z, Median: 2.19 h
  HL_Lambda_z, Min: 1.62 h
  Tmax, Max: 5.00 h
[1]; concentrations at 8 hours post-dose, multiple dosing 50 mg QD, fasted state
  steady state achieved by: ≤ 3 days
[1]; oral, Day 10, steady state, fasting, 50 mg QD SoftGel, statistic not stated, range 2.3 to 46.1, read-out: Cmax
  Cmax: 5.7 ng/mL
[1]; oral, Day 10, steady state, fasting, 50 mg QD SoftGel, statistic not stated, range 6.7 to 75.4, read-out: AUC0-24
  AUC(0-t): 20.4 ng·h/mL
[1]; oral, Day 10, steady state, fasting, 50 mg QD SoftGel, statistic not stated, read-out: Tmax
  Tmax: 2 h
[1]; oral, Day 14, fed (moderate fat meal), multiple dose, 50 mg QD SoftGel, statistic not stated, read-out: Tmax
  Tmax: 4 h
[1]; oral, Day 14, fed (moderate fat meal), 50 mg QD SoftGel, statistic not stated, range 1.0 to 3.0, read-out: Cmax
  Cmax: 1.6 ng/mL
[1]; oral, Day 14, fed (moderate fat meal), 50 mg QD SoftGel, statistic not stated, range 3.7 to 16.6, read-out: AUC0-24
  AUC(0-t): 7.3 ng·h/mL
[1]; oral, Study 107, Cohort 1, Day 1, 50 mg SoftGel single dose, fasted, read-out: AUC0-24, Geometric Mean
  AUC(0-t): 15.8 ng·h/mL
[1]; oral, Study 107, Cohort 1, Day 1, 50 mg SoftGel single dose, fasted, read-out: AUC0-24, Median
  AUC(0-t): 16.7 ng·h/mL
[1]; oral, Study 107, Cohort 1, Day 1, 50 mg SoftGel single dose, fasted, read-out: AUCINF_obs, Geometric Mean
  AUC(0-inf): 20 ng·h/mL
[1]; oral, Study 107, Cohort 1, Day 1, 50 mg SoftGel single dose, fasted, read-out: AUCINF_obs, Median
  AUC(0-inf): 20.6 ng·h/mL
[1]; oral, Study 107, Cohort 1, Day 1, 50 mg SoftGel single dose, fasted, read-out: Cmax, Geometric Mean
  Cmax: 5.3 ng/mL
[1]; oral, Study 107, Cohort 1, Day 1, 50 mg SoftGel single dose, fasted, read-out: Cmax, Mean
  Cmax: 6.32 ng/mL
[1]; oral, Study 107, Cohort 1, Day 1, 50 mg SoftGel single dose, fasted, read-out: Cmax, Median
  Cmax: 5.73 ng/mL
[1]; oral, Study 107, Cohort 1, Day 1, 50 mg SoftGel single dose, fasted, read-out: Tmax, Geometric Mean
  Tmax: 2.18 h
[1]; oral, Study 107, Cohort 1, Day 1, 50 mg SoftGel single dose, fasted, read-out: Tmax, Mean
  Tmax: 2.42 h
[1]; oral, Study 107, Cohort 1, Day 1, 50 mg SoftGel single dose, fasted, read-out: Tmax, Median
  Tmax: 2.25 h
[1]; po, Cohort 1, Day 1, 50 mg SoftGel oral, fasted, single dose, Geometric Mean, read-out: Tmax
  Tmax: 2.18 h
[1]; po, Cohort 1, Day 1, 50 mg SoftGel oral, fasted, single dose, Mean, read-out: Cmax
  Cmax: 6.32 ng/mL
[1]; po, Cohort 1, Day 1, 50 mg SoftGel oral, fasted, single dose, Mean, read-out: Tmax
  Tmax: 2.42 h
[1]; po, Cohort 1, Day 1, 50 mg SoftGel oral, fasted, single dose, Median, read-out: Cmax
  Cmax: 6.78 ng/mL
[1]; po, Cohort 1, Day 1, 50 mg SoftGel oral, fasted, single dose, Median, read-out: Tmax
  Tmax: 2.25 h
[1]; po, Cohort 1, Day 10, 50 mg QD SoftGel oral, fasted, multiple dose, Geometric Mean, read-out: Tmax
  Tmax: 2.35 h
[1]; po, Cohort 1, Day 10, 50 mg QD SoftGel oral, fasted, multiple dose, Mean, read-out: Cmax
  Cmax: 9.71 ng/mL
[1]; po, Cohort 1, Day 10, 50 mg QD SoftGel oral, fasted, multiple dose, Mean, read-out: Tmax
  Tmax: 2.69 h
[1]; po, Cohort 1, Day 10, 50 mg QD SoftGel oral, fasted, multiple dose, Median, read-out: Cmax
  Cmax: 4.7 ng/mL
[1]; po, Cohort 1, Day 10, 50 mg QD SoftGel oral, fasted, multiple dose, Median, read-out: Tmax
  Tmax: 2 h
[1]; po, Cohort 1, Day 14, 50 mg QD SoftGel oral, fed (moderate fat meal), multiple dose, Geometric Mean, read-out: Cmax
  Cmax: 1.62 ng/mL
[1]; po, Cohort 1, Day 14, 50 mg QD SoftGel oral, fed (moderate fat meal), multiple dose, Geometric Mean, read-out: Tmax
  Tmax: 3.63 h
[1]; po, Cohort 1, Day 14, 50 mg QD SoftGel oral, fed (moderate fat meal), multiple dose, Mean, read-out: Tmax
  Tmax: 3.78 h
[1]; po, Cohort 1, Day 14, 50 mg QD SoftGel oral, fed (moderate fat meal), multiple dose, Median, read-out: Cmax
  Cmax: 1.48 ng/mL
Human CGRP
  pKi: 10.64
[2]
  AUC: 33.0 ng·h/mL
[3]
  lowest fully effective dose: 10 mg
[4]
  AUC0-4 hr, Median/Average: 44.4 ng·h/mL
  Cmax, Median/Average: 31.7 ng/mL
  Tmax, Median/Average: 0.5 h
  t1/2, Median/Average: 0.71 h
In vivo
  AUC(0-t): 40.3 ng·h/mL
In vivo; Median/Average
  AUC(0-t): 55.1 ng·h/mL
In vivo; Cmax, Median/Average
  Cmax: 37 ng/mL
In vivo; Tmax, Median/Average
  Tmax: 1 h
In vivo; t1/2
  half-life: 0.54 h
In vivo; t1/2, Median/Average
  half-life: 0.77 h
